Measured values reported in article PMC9150124, “Design of a Potent, Selective, and Brain-Penetrant Inhibitor of Wnt-Deactivating Enzyme Notum by Optimization of a Crystallographic Fragment Hit” (Journal of Medicinal Chemistry, 2022).

How the values were obtained:
Assay in all cases: SelectScreen kinase profiling, SSBK ZLyte SP Technology
Assay type in all cases: biochemical
[1] = target: kinase named in conditions (Homo sapiens, UniProt P80192); conditions: MAP3K9 (MLK1), 10 μM
Procedure: (§1) Kinase selectivity screening was performed by Thermo Fisher Scientific (Paisley, U.K.) in their SelectScreen Biochemical Kinase Profiling Service. Assay information and data are presented in the Supporting Information.
(§2) Kinase selectivity screening was performed by ThermoFisher Scientific (Paisley, U.K.) in their SelectScreenTM
(§3) Biochemical Kinase Profiling service .

[2] = target: kinase named in conditions (Homo sapiens, UniProt Q13188); conditions: STK3 (MST2), 10 μM
Procedure: as §1, §2, §3

[3] = target: kinase named in conditions (Homo sapiens, UniProt O00141); conditions: SGK (SGK1), 10 μM
Procedure: as §1, §2, §3

[4] = target: kinase named in conditions (Homo sapiens, UniProt P48729); conditions: CSNK1A1 (CK1 alpha 1), 10 μM
Procedure: as §1, §2, §3

[5] = target: kinase named in conditions (Homo sapiens, UniProt O95819); conditions: MAP4K4 (HGK), 10 μM
Procedure: as §1, §2, §3

[6] = target: kinase named in conditions (Homo sapiens, UniProt P49761); conditions: CLK3, 10 μM
Procedure: as §1, §2, §3

[7] = target: kinase named in conditions (Homo sapiens, UniProt Q13627); conditions: DYRK1A, 10 μM
Procedure: as §1, §2, §3

[8] = target: kinase named in conditions (Homo sapiens, UniProt P05771); conditions: PRKCB1 (PKC beta I), 10 μM
Procedure: as §1, §2, §3

[9] = target: kinase named in conditions (Homo sapiens, UniProt Q14164); conditions: IKBKE (IKK epsilon), 10 μM
Procedure: as §1, §2, §3

[10] = target: kinase named in conditions (Homo sapiens, UniProt Q56UN5); conditions: MAP3K19 (YSK4), 10 μM
Procedure: as §1, §2, §3

[11] = target: kinase named in conditions (Homo sapiens, UniProt Q12851); conditions: MAP4K2 (GCK), 10 μM
Procedure: as §1, §2, §3

[12] = target: kinase named in conditions (Homo sapiens, UniProt O60674)
Procedure: as §1, §2, §3

[13] = target: kinase named in conditions (Homo sapiens, UniProt Q15759); conditions: MAPK11 (p38 beta), 10 μM
Procedure: as §1, §2, §3

[14] = target: kinase named in conditions (Homo sapiens, UniProt P28482); conditions: MAPK1 (ERK2), 10 μM
Procedure: as §1, §2, §3

[15] = target: kinase named in conditions (Homo sapiens, UniProt P07949, Y791F); conditions: RET Y791F, 10 μM
Procedure: as §1, §2, §3

[16] = target: kinase named in conditions (Homo sapiens, UniProt P16234); conditions: PDGFRA (PDGFR alpha), 10 μM
Procedure: as §1, §2, §3

[17] = target: kinase named in conditions (Homo sapiens, UniProt P19784); conditions: CSNK2A2 (CK2 alpha 2), 10 μM
Procedure: as §1, §2, §3

[18] = target: kinase named in conditions (Homo sapiens, UniProt P36888, D835Y); conditions: FLT3 D835Y, 10 μM
Procedure: as §1, §2, §3

[19] = target: kinase named in conditions (Homo sapiens, UniProt Q9Y5S2); conditions: CDC42 BPB (MRCKB), 10 μM
Procedure: as §1, §2, §3

[20] = target: kinase named in conditions (Homo sapiens, UniProt O14757); conditions: CHEK1 (CHK1), 10 μM
Procedure: as §1, §2, §3

[21] = target: kinase named in conditions (Homo sapiens, UniProt Q15349); conditions: RPS6KA2 (RSK3), 10 μM
Procedure: as §1, §2, §3

[22] = target: kinase named in conditions (Homo sapiens, UniProt P00519, F317I); conditions: ABL1 F317I, 10 μM
Procedure: as §1, §2, §3

[23] = target: kinase named in conditions (Homo sapiens, UniProt Q06418); conditions: TYRO3 (RSE), 10 μM
Procedure: as §1, §2, §3

[24] = target: kinase named in conditions (Homo sapiens, UniProt P49760); conditions: CLK2, 10 μM
Procedure: as §1, §2, §3

[25] = target: kinase named in conditions (Homo sapiens, UniProt P29317); conditions: EPHA2, 10 μM
Procedure: as §1, §2, §3

[26] = target: kinase named in conditions (Homo sapiens, UniProt P09619); conditions: PDGFRB (PDGFR beta), 10 μM
Procedure: as §1, §2, §3

[27] = target: kinase named in conditions (Homo sapiens, UniProt O76039); conditions: CDKL5, 10 μM
Procedure: as §1, §2, §3

[28] = target: kinase named in conditions (Homo sapiens, UniProt Q86V86); conditions: PIM3, 10 μM
Procedure: as §1, §2, §3

[29] = target: kinase named in conditions (Homo sapiens, UniProt P23458); conditions: JAK1, 10 μM
Procedure: as §1, §2, §3

[30] = target: kinase named in conditions (Homo sapiens, UniProt Q13976); conditions: PRKG1, 10 μM
Procedure: as §1, §2, §3

[31] = target: kinase named in conditions (Homo sapiens, UniProt P15735); conditions: PHKG2, 10 μM
Procedure: as §1, §2, §3

[32] = target: kinase named in conditions (Homo sapiens, UniProt P07947); conditions: YES1, 10 μM
Procedure: as §1, §2, §3

[33] = target: kinase named in conditions (Homo sapiens, UniProt Q13882); conditions: PTK6 (Brk), 10 μM
Procedure: as §1, §2, §3

[34] = target: kinase named in conditions (Homo sapiens, UniProt P34947); conditions: GRK5, 10 μM
Procedure: as §1, §2, §3

Sequence of kinase named in conditions (Homo sapiens, UniProt O60674) (O60674 whole entry): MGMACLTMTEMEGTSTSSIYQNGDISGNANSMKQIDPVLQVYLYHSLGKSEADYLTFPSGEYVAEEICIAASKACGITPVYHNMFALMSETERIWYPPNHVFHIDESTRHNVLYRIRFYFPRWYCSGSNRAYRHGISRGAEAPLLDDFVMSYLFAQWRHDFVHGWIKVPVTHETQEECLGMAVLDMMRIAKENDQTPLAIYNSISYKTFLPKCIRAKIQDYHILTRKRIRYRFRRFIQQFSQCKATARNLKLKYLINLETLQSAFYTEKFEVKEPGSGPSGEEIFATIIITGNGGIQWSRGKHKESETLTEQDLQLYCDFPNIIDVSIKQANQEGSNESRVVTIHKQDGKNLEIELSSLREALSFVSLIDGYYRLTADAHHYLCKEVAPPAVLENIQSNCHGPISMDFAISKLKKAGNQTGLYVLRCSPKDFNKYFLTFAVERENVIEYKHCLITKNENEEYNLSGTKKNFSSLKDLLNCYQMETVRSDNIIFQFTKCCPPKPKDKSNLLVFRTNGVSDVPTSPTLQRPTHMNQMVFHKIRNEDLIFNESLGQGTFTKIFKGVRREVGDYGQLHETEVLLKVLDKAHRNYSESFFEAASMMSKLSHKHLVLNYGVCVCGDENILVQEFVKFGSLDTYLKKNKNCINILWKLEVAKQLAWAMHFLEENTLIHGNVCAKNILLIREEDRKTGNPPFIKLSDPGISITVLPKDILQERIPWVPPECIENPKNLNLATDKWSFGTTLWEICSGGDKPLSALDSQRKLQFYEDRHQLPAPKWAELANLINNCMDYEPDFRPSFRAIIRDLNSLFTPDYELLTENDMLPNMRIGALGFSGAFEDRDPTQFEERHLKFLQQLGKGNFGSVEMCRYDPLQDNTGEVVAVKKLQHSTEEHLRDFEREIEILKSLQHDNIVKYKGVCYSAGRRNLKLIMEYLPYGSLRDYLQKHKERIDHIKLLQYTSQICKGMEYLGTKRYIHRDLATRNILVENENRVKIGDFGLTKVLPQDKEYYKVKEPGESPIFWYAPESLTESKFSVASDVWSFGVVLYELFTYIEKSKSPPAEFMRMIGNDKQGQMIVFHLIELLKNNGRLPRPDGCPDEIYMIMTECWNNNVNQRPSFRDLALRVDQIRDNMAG
Sequence of kinase named in conditions (Homo sapiens, UniProt P15735) (P15735 whole entry): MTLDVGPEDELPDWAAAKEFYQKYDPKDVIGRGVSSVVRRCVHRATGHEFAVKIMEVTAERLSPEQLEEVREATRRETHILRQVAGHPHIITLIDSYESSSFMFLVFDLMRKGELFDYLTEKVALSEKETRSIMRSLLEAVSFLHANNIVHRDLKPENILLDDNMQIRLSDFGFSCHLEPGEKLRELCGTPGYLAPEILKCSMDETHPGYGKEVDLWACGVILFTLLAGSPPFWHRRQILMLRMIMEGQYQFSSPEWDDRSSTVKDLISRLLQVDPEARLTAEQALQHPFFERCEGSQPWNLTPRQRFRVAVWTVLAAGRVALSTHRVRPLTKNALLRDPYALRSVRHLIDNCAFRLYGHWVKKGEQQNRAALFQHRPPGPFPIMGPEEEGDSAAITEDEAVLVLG
Sequence of kinase named in conditions (Homo sapiens, UniProt P07947) (P07947 whole entry): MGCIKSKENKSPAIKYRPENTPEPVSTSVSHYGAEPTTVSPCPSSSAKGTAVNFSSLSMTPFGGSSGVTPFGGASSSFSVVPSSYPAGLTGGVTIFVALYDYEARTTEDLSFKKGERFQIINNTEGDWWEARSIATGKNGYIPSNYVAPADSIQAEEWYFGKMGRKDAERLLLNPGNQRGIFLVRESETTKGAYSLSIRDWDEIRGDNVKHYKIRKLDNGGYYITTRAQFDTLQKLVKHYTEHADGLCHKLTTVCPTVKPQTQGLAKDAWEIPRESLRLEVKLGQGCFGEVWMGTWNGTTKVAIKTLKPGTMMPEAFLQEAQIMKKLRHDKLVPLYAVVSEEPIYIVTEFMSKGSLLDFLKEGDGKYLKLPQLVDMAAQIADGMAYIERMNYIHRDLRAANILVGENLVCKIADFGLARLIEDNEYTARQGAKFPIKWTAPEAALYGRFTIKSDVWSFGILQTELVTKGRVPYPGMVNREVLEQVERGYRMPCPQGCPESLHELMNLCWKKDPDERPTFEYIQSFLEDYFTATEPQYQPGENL
Sequence of kinase named in conditions (Homo sapiens, UniProt P00519, F317I) (P00519 whole entry F317I): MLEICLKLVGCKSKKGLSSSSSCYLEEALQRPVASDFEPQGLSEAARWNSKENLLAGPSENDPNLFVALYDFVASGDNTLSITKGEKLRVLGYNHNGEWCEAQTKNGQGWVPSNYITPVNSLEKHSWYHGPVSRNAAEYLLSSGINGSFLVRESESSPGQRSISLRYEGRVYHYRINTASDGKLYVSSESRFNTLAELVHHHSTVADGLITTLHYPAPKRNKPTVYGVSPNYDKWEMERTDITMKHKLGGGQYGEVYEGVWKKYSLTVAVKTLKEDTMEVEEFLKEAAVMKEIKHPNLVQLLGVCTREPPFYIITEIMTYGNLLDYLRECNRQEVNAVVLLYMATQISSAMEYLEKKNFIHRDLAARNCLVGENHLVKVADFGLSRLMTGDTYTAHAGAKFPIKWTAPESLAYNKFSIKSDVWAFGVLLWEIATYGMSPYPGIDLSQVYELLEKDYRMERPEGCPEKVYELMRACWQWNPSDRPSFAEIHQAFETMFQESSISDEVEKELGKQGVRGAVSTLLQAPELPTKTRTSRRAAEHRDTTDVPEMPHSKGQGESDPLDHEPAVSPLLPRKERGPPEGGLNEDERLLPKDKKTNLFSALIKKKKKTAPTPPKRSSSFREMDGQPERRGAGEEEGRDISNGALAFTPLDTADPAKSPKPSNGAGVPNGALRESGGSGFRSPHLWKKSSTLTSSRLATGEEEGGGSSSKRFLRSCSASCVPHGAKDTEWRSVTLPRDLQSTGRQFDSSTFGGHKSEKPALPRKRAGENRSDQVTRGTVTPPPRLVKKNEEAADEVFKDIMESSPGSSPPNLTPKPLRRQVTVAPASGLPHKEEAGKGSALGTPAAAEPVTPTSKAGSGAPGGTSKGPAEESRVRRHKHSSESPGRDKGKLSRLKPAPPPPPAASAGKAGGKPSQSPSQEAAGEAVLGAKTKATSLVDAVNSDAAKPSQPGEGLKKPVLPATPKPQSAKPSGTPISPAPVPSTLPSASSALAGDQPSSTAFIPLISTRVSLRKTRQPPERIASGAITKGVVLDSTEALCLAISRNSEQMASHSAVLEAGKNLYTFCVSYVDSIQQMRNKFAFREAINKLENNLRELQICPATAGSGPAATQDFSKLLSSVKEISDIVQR
Sequence of kinase named in conditions (Homo sapiens, UniProt Q13976) (Q13976 whole entry): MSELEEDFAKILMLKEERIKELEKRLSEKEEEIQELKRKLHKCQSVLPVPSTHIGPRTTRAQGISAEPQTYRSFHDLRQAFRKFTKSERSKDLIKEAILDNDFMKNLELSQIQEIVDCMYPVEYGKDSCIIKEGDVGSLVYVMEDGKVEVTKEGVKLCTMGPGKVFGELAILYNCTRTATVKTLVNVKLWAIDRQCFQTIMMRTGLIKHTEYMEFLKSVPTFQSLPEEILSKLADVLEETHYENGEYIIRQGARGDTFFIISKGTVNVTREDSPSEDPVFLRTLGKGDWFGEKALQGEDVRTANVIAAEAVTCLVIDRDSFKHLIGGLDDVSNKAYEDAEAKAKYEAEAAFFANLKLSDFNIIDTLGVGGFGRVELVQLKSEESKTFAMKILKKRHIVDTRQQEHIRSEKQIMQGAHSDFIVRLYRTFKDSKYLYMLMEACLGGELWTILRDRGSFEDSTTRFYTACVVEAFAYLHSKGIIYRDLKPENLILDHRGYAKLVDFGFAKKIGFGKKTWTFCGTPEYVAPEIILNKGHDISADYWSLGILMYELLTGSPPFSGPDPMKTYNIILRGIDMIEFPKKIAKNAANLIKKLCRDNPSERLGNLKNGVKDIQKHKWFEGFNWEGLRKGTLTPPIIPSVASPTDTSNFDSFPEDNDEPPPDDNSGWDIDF
Sequence of kinase named in conditions (Homo sapiens, UniProt P09619) (P09619 33-1106): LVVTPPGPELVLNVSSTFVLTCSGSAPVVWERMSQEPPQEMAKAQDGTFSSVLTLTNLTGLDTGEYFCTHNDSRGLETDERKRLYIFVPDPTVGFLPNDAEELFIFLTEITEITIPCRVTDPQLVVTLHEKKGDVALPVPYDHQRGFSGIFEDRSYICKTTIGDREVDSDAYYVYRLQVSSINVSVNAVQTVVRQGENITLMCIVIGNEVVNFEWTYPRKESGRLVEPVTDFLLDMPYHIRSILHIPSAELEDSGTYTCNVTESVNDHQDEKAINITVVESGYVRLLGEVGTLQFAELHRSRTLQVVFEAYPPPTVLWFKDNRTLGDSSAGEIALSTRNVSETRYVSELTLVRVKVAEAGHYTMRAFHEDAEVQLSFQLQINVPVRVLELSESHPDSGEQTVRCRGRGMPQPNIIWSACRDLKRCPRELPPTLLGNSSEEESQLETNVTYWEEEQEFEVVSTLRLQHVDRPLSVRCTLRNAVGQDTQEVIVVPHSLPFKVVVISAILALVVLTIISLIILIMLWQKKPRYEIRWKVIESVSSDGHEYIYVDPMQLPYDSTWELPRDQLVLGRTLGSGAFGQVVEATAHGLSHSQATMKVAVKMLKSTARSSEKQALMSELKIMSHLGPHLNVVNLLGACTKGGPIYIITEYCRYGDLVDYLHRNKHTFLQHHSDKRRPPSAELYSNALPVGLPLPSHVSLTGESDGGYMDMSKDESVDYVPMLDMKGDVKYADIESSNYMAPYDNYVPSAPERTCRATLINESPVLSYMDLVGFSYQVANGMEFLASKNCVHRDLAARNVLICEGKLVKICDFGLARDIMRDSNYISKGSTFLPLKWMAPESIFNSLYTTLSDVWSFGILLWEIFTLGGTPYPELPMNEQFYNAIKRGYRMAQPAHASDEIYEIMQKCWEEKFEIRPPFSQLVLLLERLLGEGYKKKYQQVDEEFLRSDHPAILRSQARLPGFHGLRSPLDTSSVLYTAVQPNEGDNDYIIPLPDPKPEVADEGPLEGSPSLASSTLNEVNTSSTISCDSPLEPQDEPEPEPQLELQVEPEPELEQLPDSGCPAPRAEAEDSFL

Compound: FC(F)(F)c1c(Cl)ccc(-n2ccnn2)c1Cl [8l, 1-(2,4-Dichloro-3-(trifluoromethyl)phenyl)-1H-1,2,3-triazole]
- inhibition at 10 µM [1]: -4%
- inhibition at 10 µM [2]: -9%
- inhibition at 10 µM [3]: 5%
- inhibition at 10 µM [4]: 2%
- inhibition at 10 µM [5]: -8%
- inhibition at 10 µM [6]: 2%
- inhibition at 10 µM [7]: 0%
- inhibition at 10 µM [8]: 0%
- inhibition at 10 µM [9]: 11%
- inhibition at 10 µM [10]: -5%
- inhibition at 10 µM [11]: -3%
- inhibition at 10 µM ([12]; JAK2, 10 μM): 3%
- inhibition at 10 µM ([12]; JAK2 JH1 JH2, 10 μM): -1%
- inhibition at 10 µM [13]: 6%
- inhibition at 10 µM [14]: -2%
- inhibition at 10 µM [15]: 5%
- inhibition at 10 µM [16]: 13%
- inhibition at 10 µM [17]: 17%
- inhibition at 10 µM [18]: 3%
- inhibition at 10 µM [19]: -1%
- inhibition at 10 µM [20]: 24%
- inhibition at 10 µM [21]: 5%
- inhibition at 10 µM [22]: 13%
- inhibition at 10 µM [23]: 5%
- inhibition at 10 µM [24]: 18%
- inhibition at 10 µM [25]: 9%
- inhibition at 10 µM [26]: 20%
- inhibition at 10 µM [27]: -5%
- inhibition at 10 µM [28]: 6%
- inhibition at 10 µM [29]: 2%
- inhibition at 10 µM [30]: 15%
- inhibition at 10 µM [31]: 8%
- inhibition at 10 µM [32]: 3%
- inhibition at 10 µM [33]: 6%
- inhibition at 10 µM [34]: -2%
